Test results as given in US20250002467A1, “DESIGN, SYNTHESIS AND MECHANISMS OF ANTICANCER ACTIVITY OF NEW ACETYLATED 5-AMINOSALICYLATE-THIAZOLINONE HYBRID DERIVATIVES” (University of Sharjah, priority 2023, published 2025).
Entries after “also recorded” stand apart in the source; their conditions may differ.

Tests used:
[1] = system: HeLa; assay: SRB cytotoxicity assay, HeLa; assay type: cell-based
Description: (§1) Eight different cancer cell lines were acquired from the Radiobiology and Experimental Radio Oncology lab, University Medical Center, Hamburg University, Hamburg, Germany. MCF7, MDA-MB-231 (breast cancer), and A549 (lung cancer) cells were maintained in RPMI medium while HCT116 (colon cancer), HepG2 (liver cancer), U87, U373 (glioblastoma), and HeLa (cervical cancer) were maintained in DMEM supplemented with 10% FBS and 1% penicillin/streptomycin (Sigma Aldrich, Missouri, USA). Normal human fibroblast (F180) cells were maintained in DMEM supplemented with 15% FBS. Normal human mammary epithelial cell line (HME1) were maintained in DMEM/F-12 medium supplemented with 10% FBS. All incubations were done at 37° C. in a humidified atmosphere of 5% CO2. All cell lines were authenticated by short tandem repeat (STR) profiling. The CDK4 knockout cells (provided by Dr. Samrein Ahmed, University of Sharjah, United Arab Emirates) were generated by CRISPR-CAS9 technology and were maintained in DMEM supplemented with 10% FBS.
(§2) The cytotoxic effects of HH32 and HH33 compounds were evaluated at various concentrations ranging from 0.0001 to 100 μM by sulphrhodamine-B (SRB) assay as described previously. The anti-proliferative activity was expressed as growth inhibitory concentration (IC50) values, which were calculated by the sigmoidal dose-response curve fitting method using Graph pad prism 6 software (GraphPad Software, San Diego, CA, USA).

[2] = system: eight tested cancer cell lines; assay: SRB cytotoxicity assay, eight cancer cell lines; assay type: cell-based; settings: for viability of the eight tested cancer cell lines: SRB, 0.0001 to 100 μM; for selectivity index compared with doxorubicin: cancer cell lines versus normal cells
Description: as §1, §2

[3] = system: MCF7 cells; assay: Metabolic analysis by GC-MS; assay type: cell-based
Experimental: The release of different metabolites following HH32 and HH33 treatment on MCF7 cells was detected using Gas Chromatography-Mass Spectrometry (GC-MS) (Shimadzu, Kyoto, Japan) as was described previously. GC-MS analysis was performed using a QP2010 gas chromatography-mass spectrometer (GC-2010 coupled with a GC-MS QP-2010 Ultra) equipped with an auto-sampler (AOC-20i+s) from Shimadzu (Tokyo, Japan), using Rtx-5 ms column (30 m length×0.25 mm inner diameter x 0.25 μm film thickness; Restek, Bellefonte, PA, USA). Helium (99.9% purity) was used as the carrier gas with the column flow rate of 1 mL/min. Data collection and analysis were performed using MSD Enhanced Chemstation software (Shimadzu, Kyoto, Japan). GC total ion chromatograms (TIC) and fragmentation patterns of the compound were identified using the NIST/EPA/NIH Mass Spectral Library (NIST 14).
Preprocessing and data analysis were performed using an in-house R script. Only compounds registered in Human Metabolome Database (HMDB 4.0) were considered for further analysis. Compounds with more than 70% of missing values were considered unreliable and therefore excluded. Probabilistic Quotient Normalization was used to normalize data due to dilution effects in the extraction procedure. Missing metabolite measurements were imputed using the k-nearest neighbor algorithm with k—3. […] To account for multiple testing, a false discovery rate (FDR) of <15% was applied to reduce the identification of false positives. FDRs were calculated using the q conversion algorithm in multiple comparisons. Principal component analysis (PCA) was used to visualize the metabolomic data. Data were mean-centered and scaled to unit variance before PCA.

[4] = system: MCF7, HCT-116, HeLa and A549 cells; assay: Western blot protein expression analysis; assay type: cell-based; settings: for cyclin E, cyclin D1 and CDK2 levels: G1-S phase transition proteins; for phospho-Rb (ser249): HCT116 and HeLa cells; for level of p-H2Ax (y-H2Ax): MCF7, HeLa, HCT116, and A549 cells, 24 h; for cleavage of caspase-8: all cell lines; for ATR/Chk1 signaling: four cell lines
Experimental: The protein expression analysis was done after treatment with […] of HH32 and HH33 compounds for 24 hours by western blot. Cell lysates were prepared using lysis buffer containing 20% SDS, glycerol, 1M Tris (pH 6.8) and supplemented with protease and phosphatase inhibitors (Sigma Aldrich, Missouri, USA). The proteins were separated by SDS-PAGE and transblotted into nitrocellulose membrane (Biorad, Hercules, CA, USA). Membrane were incubated overnight at 4° C. with the following primary antibodies: 7H2AX, H2Ax, p21, CDC2, CDC25c, cyclin B, c-Myc, Bid, ATM, p-ATM, ATR, p-ATR, Chk1, p-Chk1, Chk2, p-Chk2, caspase 9, caspase 8, pRb (Ser807/811) (Cell Signaling Technology, Massachusetts, USA), p53, cyclin A, cyclin E, cyclin D1, CDK2, Rb, pRb (Ser249) (Santa Cruz Biotech, Texas, USA) and β-actin (Sigma Aldrich, Missouri, USA). Membranes were then incubated with respective mouse/rabbit secondary antibody (Cell Signaling Technology, Massachusetts, USA) for 1 hour at room temperature and detected by enhanced chemiluminescence (ECL) (Biorad, Hercules, CA, USA) method using Chemi Doc imaging system (Biorad, Hercules, CA, USA). The protein bands were quantified using Image lab™ software (Biorad, Hercules, CA, USA).

[5] = system: MDA-MB-231; assay: SRB cytotoxicity assay, MDA-MB-231; assay type: cell-based
Description: as §1, §2

[6] = system: MCF7, HCT-116 and A549 cells; assay: Neutral comet assay; assay type: cell-based; settings: for level of DNA damage (tail moment): 0.5 and 1 μM, 24 hours, three cell lines
Experimental: MCF7, HCT-116 and A549 cells were treated with […] of HH32 or HH33 compounds for 24 hours and control cells were treated with vehicle (DMSO). A group of cells was treated with doxorubicin as a reference drug using the same treatment conditions. Comet assay was performed in neutral condition to detect DNA double-strand breaks using comet assay kit (Trevigen Inc., Maryland, USA) according to the manufacturer's instructions. The tail moment, which reflect the amount of DNA damage in each nucleus, was calculated in at least 50 cells using OpenComet software.

[7] = system: HepG2; assay: SRB cytotoxicity assay, HepG2; assay type: cell-based
Description: as §1, §2

[8] = system: U87; assay: SRB cytotoxicity assay, U87; assay type: cell-based; settings: for IC50: U87, SRB, mean ± SEM
Description: as §1, §2

[9] = system: F-180; assay: SRB cytotoxicity assay, normal fibroblast F-180; assay type: cell-based, human; settings: F-180 normal fibroblast, mean ± SEM
Description: as §1, §2

Structure (SMILES)	Selectivity index ([1]; F180 versus HeLa)	Selectivity index ([1]; HME1 versus HeLa)	viability of the eight tested cancer cell lines [2]	selectivity index compared with doxorubicin [2]	cyclin E, cyclin D1 and CDK2 levels [4]	phospho-Rb (ser249) [4]	phospho-Rb (ser807/811) ([4]; HCT-116)	expression of p53 and p21 ([4]; HeLa cells)	phospho-Rb (ser807/811) ([4]; HeLa cells)	expression of p53 and p21 ([4]; MCF7, HCT-116 and A549 cells)	phosphorylation status of ATM and Chk2 ([4]; MCF7, HCT-116 and A549 cells)	level of p-H2Ax (y-H2Ax) ([4]; 0.5 and 1 μM)	cleavage of caspase-8 [4]	ATR/Chk1 signaling [4]	Selectivity index ([5]; F180 versus MDA-MB-231)	Selectivity index ([5]; HME1 versus MDA-MB-231)	level of DNA damage (tail moment) [6]	Selectivity index ([7]; F180 versus HepG2)	Selectivity index ([7]; HME1 versus HepG2)	Selectivity index ([8]; F180 versus U87)	other results
COC(=O)c1cc(NC2=NC(=O)C(=Cc3ccc(C)cc3)S2)ccc1OC(C)=O [HH32, Methyl 2-acetoxy-5-[(5-(4-methylbenzylidene)-4 (H)-oxo-1,3-thiazol-2-yl)-amino]benzoate]	22.2	44.65	remarkable concentration-dependent decrease	superior in most of cancer cell lines than doxorubicin	slightly changed	increased	reduced	reduced	increased	substantially increased	increased significantly	marked elevation	cleaved	activate	0.87	1.7	increased	5.36	10.8	2.04	IC50 ([1]; HeLa, SRB, mean ± SEM): 0.6 ± 0.47 µM; Guanosine levels ([3]; vs untreated cells): altered; total c-Myc protein level ([4]; 1 μM, MCF7 and HCT-116 cells): downregulation; phosphorylation status of ATM and Chk2 ([4]; HeLa cells): increased significantly; IC50 ([5]; MDA-MB-231, SRB, mean ± SEM): 15.35 ± 0.08 µM; IC50 ([7]; HepG2, SRB, mean ± SEM): 2.49 ± 0.11 µM; Selectivity index ([8]; HME1 versus U87): 4.1; IC50 [8]: 6.53 ± 0.09 µM; IC50 [9]: 13.3 ± 0.38 µM
COC(=O)c1cc(NC2=NC(=O)C(=Cc3ccc(N(C)C)cc3)S2)ccc1OC(C)=O [HH33, Methyl 2-acetoxy-5-[(5-(4-dimethylaminobenzylidene)-4 (H)-oxo-1,3-thiazol-2-yl)-amino]benzoate]	16.3	38.5	remarkable concentration-dependent decrease	superior in most of cancer cell lines than doxorubicin	slightly changed	increased	reduced	reduced	increased	substantially increased	increased significantly	marked elevation	cleaved	activate	0.99	2.3	increased	10.3	24	3.8	activity compared with doxorubicin ([1]; HeLa cells): superior activity than doxorubicin; increase of palmitic acid [3]: 20%; reduction of 1-Monopalmitin level ([3]; compared to control cells): 4.5 fold; level of 1-Monopalmitin ([3]; vs untreated cells): significant decreased; level of Adenosine ([3]; vs untreated cells): significant decreased; also recorded: significant reduction; level of Decanoic Acid ([3]; vs untreated cells): significant decreased; also recorded: reduction; total c-Myc protein level ([4]; 0.5 and 1 μM, four cancer cell lines): decreased; cleavage of caspase-9 ([4]; MCF7, HeLa and A549 cells): increase; reducing expression of G2/M progression proteins (cyclin A, cyclin B, CDC25c and CDC2/CDK1) ([4]; compared with HH32): more effective than HH32; level of DNA double strand breaks compared with doxorubicin ([6]; 1 μM, same concentration, three tested cell lines): higher than doxorubicin; comet length compared with HH32-treated cells ([6]; MCF7 and HCT-116 cells): markedly higher; Selectivity index ([8]; HME1 versus U87): 9; IC50 [8]: 1.03 ± 0.11 µM; IC50 [9]: 3.91 ± 0.43 µM
